One molecule from patent US11033545B2, “Negative allosteric modulators of MGLUR5 for use in the treatment of mature brain damages” (Sinntaxis AB, priority 2016, dated 2021) can be followed below.

Type in all cases: in vivo
Test [1] relates to male Sprague Dawley rats. Put plainly: Paw placement test after photothrombotic stroke in the rat. The conditions noted are these: rat. As to the method: Animals. All experiments were carried out with the approval of the Malmö-Lund animal review board and according to the ARRIVE guidelines. Animals were housed under reverse light conditions, with the testing performed during the dark period when the rats are active. The experiments were carried out on male Sprague Dawley rats (11 weeks of age, Charles River, Scanbur A/S Karlslunde, Denmark). The studies were subjected to randomization and carried out in a blinded fashion to the investigators who performed the surgeries and behavioral assessment.
Administration of compound. The compound was injected as a bolus dose of 1 ml/kg into the lower quadrant of the abdomen.
Experimental stroke. The animals were anesthetized by isoflurane (approximately 2% in 02 under spontaneous ventilation) and placed into stereotaxic frame. Temperature was monitored during surgery using a rectal temperature probe and animals were kept at 37.0-37.5±0.2° C. by means of a heating pad with feedback control. A sagittal skin incision was made and subcutaneous connective tissue was removed and the skull was dried. Thereafter, the photosensitizer dye Rose Bengal (0.5 mL at 10 mg/mL) was infused in the tail vein. Two minutes after injection, the skull was illuminated with cold light (Schott, KL 1500 LCD) on an area of 8 to 4.5 mm for 15 min (from +4 to −4 mm antero-posterior and from 0.5 to 5 mm on the left from bregma). Thereafter the tail and the scalp incisions were sutured and the rats transferred to their home cage. The functional deficit was assessed 2 h after the onset of the stroke using the limb placement test and only the animals having a score 0, for both fore- and hindlimb contralateral to the brain damaged hemisphere were used for the study.
Test of neurological function. The paw placement test. The cortical damage inflicted by the phothrombosis, causes a deficit due to neuronal loss in the sensori-motor area and depression of functions in neuronal networks in the vicinity of the lesion. […] This test provides information on the tactile/proprioceptive response to limb stimulation. Animals were placed with all 4 paws on the table top, and the paws to be tested along the edge. The rat was moved over the edge so the paws to be tested loose contact with the table surface. The ability of the animals to place the limb back onto the table surface when the rat was moved towards the edge was evaluated. Importantly, the head was held at 45° angle, so that visual and whisker/snout stimulation was prevented. A prompt placement of the limb onto the table was scored as 1. Incomplete placing of the limb was scored as 0.5, and complete extension of the limb and paw was scored as 0. In order to obtain groups with a similar functional deficit prior to treatment of the animals with drugs or vehicle, selective sorting was performed on day 2 after experimental stroke, a time point of recovery when the infarct development had subsided.
(§1) Administration of the compounds. The compounds were administrated orally (p.o.) by catheters placed in the stomach. The amount of solutions were 0.2 ml/rat and 0.1 ml/mice.
(§2) Induction of stroke was as made as in Example 1 for rats and as in Example 2 in mice. Assessment of neurological function was performed as in Example 1 for rats and as in Example 2 for mice. The animals were perfused and immunostained as in Example 1, and the infarct size was assessed as in Example 1.
Induction of stroke, assessment of neurological function, perfusion of animals, immunostaining and assessment of infarct size were made as in Example 1.

The subject of test [2] is male C57/BL6 mice. The experiment in a line: Paw placement test after photothrombotic stroke in the mouse. Conditions: mouse; five days treatment initiated 10 days after stroke; FIG. 2C. As to the method:
Animals. All experiments were carried out with the approval of the Malmo-Lund animal review board and according to the ARRIVE guidelines. The experiments were carried out on male C57/BL6 mice (8 weeks of age, Charles River Scanbur A/S Karlslunde, Denmark). Studies were subjected to randomization and carried out in a blinded fashion to the investigators who performed the surgeries and behavioral assessment.
Materials were as in Example 1 and the administration of the drug was made as in Example 1. Also the positive allosteric modulator (PAM) for the mGlur5 receptor was SIN006 (N-Cyclobutyl-6-[2-(3-fluorophenyl)ethynyl]-3-pyridinecarboxamide hydrochloride; VU0360172).
Induction of stroke in the mouse. Mice were subjected to unilateral photothrombotic (PT) cortical infarct in the left sensori-motor cortex. During surgery, the body temperature of the animals was kept at 37° C. using a self-regulating heating pad. Animals were anesthetized using 1.5-2.5% isoflurane (Sigma) in 100% 02. The skin above the skull was incised; a fiber optic bundle with a 2.5 mm aperture diameter was connected to a cold light source (CL 1500 ECO, Zeiss, Germany) and adjusted to the stereotaxic coordinates of the sensori-motor cortex, 0.5 mm anterior to bregma and 1.5 mm lateral to midline. One intraperitoneal (i.p.) injection of 0.25 ml Rose Bengal (10 mg/ml in 0.9% saline; Sigma-Aldrich, Germany) was given 5 min before the light was turned on for 20 minutes. Care was taken not to exceed 38° C. at the skull surface, underneath the fiber optic bundle. Post surgery, animals were allowed to awake from anesthesia while on a heating pad and returned to the cages with free access to food pellets and water.
Enriched housing. It is well known that housing of rodents in an enriched environment stimulates the various sensori-motor systems of the brain enhancing recovery after experimental stroke. Enriched housing was accomplished by the following procedure. After selective sorting at day 2 after stroke, mice were randomly distributed into standard (STD, 17 cm×16 cm×34.5 cm) or enriched cages (EE, 30 cm×27 cm×43 cm). Multilevel-enriched cages were equipped with various colored objects such as plastic tunnels, small houses, slides and rodent running wheels; the disposition of the objects was changed every second day. Mice were housed in either standard (2 animals/cage) or enriched cages (6-8 animals/cage) for 12 days. Animals in standard cages were handled similarly except for the housing condition.
Paw placement test. The mouse was held along its rostro-caudal extension on the edge of a bench and both the unilateral front and hind paws were gently pushed along it. The placement of each paw was recorded when the mouse was moved towards the edge. Sensori-motor dysfunction was assessed by using a score of 1, 0.5, and 0: (1)—the paw is immediately placed on the table surface; (0.5)—the limb is extended, but with some movements and attempts to place the paw on the surface of the table; (0)—the paw is totally immobilized, hanging down, with no movement. In order to obtain groups with a similar functional deficit prior to treatment of the animals with drugs or vehicle, selective sorting was performed on day 2 after experimental stroke, a time point of recovery when the infarct development had subsided.
as §1, §2

The subject of test [3] is male C57/BL6 mice. Described as above.
Setting [4] is: time course of recovery of function, treatment starting 2 days after stroke.

As for `Cc1nc(C#Cc2cccnc2)cs1` [SIN007, 3-[(2methyl-1,3-thiazol-4-yl)ethynyl]pyridine], in test [1] (5 mg/kg i.p. daily starting 2 days after stroke, assessed at 14 days after stroke, vs vehicle, p<0.001, FIG. 1A), the “paw placement score (recovery of paw placement function)” value is recorded as “almost complete recovery of paw placement function”. Moreover, in test [1] (after 5 days treatment, FIG. 1D), the “persistence of recovery of function after termination of the treatment” value is “at least 7 days”. In test [1] (setting [4]), the “days of treatment for a maximal treatment effect” value is listed as 14 days and the “days of treatment required for a treatment effect” value is “At least 4 days”. In test [2], the “recovery of function, delayed treatment” value is reported as “the recovery of function is the same as when treatment is initiated at 2 days after stroke”. Moreover, the recovery of function entry in test [3] (1 mg/kg i.p. daily for 3 days, standard housing, FIG. 2F) is “moderately enhances recovery of function”. Also, the “recovery of function, combined with enriched environment” value in test [3] (1 mg/kg i.p. for 3 days plus housing in enriched environment, FIG. 2F) is “significantly improves recovery”. Moreover, in test [3] (5 mg/kg i.p. daily for 5 days starting 2 days after stroke, vs vehicle, p<0.01, FIG. 2A), the “functional recovery (paw placement)” value is “strong recovery enhancing effect”. The “paw placement score after 5 days of treatment” value in test [3] (SIN007 5 mg/kg i.p. alone, vs vehicle, FIG. 2D) is given as “recovered paw function”.
